From patent US11261136B2, “Triarylmethane compounds for controlling enzyme-induced urea decomposition” (priority 2017, dated 2022)
Like-named read-outs stand apart in the source and are kept apart here.

Experiments:
jackbean urease enzyme [1] = target: T1, jackbean urease enzyme (Canavalia ensiformis, UniProt P07374); experiment: biochemical; details: pH 5
T1 construct: purchased
Protocol: (§1) An aqueous solution containing 0.105 moles/L of monosodium phosphate was adjusted to a pH of 5.0 with sodium hydroxide. Suitable quantities of a solution of 3,3′,4-trihydroxysuchsone-2″-sulfonic acid were added, with stirring, to 19.0 mL of the above phosphate solution, to give a series of mixtures having the following concentrations of sulfonic acid: 100, 250, 500, 750, 1000, 2000, and 5000 ppb. Next, commercial jackbean urease enzyme solution of known concentration was added to each mixture to provide 40 units of enzyme per 50 mL of the mixture. The mixtures were allowed to stand for 5 hours in closed glass containers at 20° C., followed by the addition to each mixture of 1.00 mL of freshly prepared urea solution (2.00 moles/L), to give an overall reaction concentration of 0.100 moles/L of both urea and phosphate. These mixtures, containing phosphate, sulfonic acid, urease, and urea were deemed A mixtures.
(§2) Simultaneously, two more solutions were identically prepared, namely an enzyme-free control where both 3,3′,4-trihydroxysuchsone-2″-sulfonic acid and enzyme are omitted (mixture B), and an enzyme control where enzyme is present without any 3,3′,4-trihydroxysuchsone-2″-sulfonic acid (mixture C). Solution urea concentrations were measured immediately in each of the mixtures, and again after a 120-minute interval.
(§3) For purposes of these tests, the C mixture containing urease and urea was deemed to provide 0% inhibition, whereas the B mixture containing urea without urease was deemed to provide 100% inhibition.

jackbean urease enzyme [2] = target: T1, jackbean urease enzyme; experiment: Jackbean urease inhibition, Example 1 repeated with buffer at pH 7; assay type: biochemical
Protocol: as §1, §2, §3
Example 1 was repeated, but with the addition of a buffer to maintain a pH of 7.0 in all of the A, B, and C mixtures. The A mixtures contained the following amounts of the 3,3′,4-trihydroxysuchsone-2″-sulfonic acid: 100, 250, 500, 750, and 1000 ppb. It is known in the art that urease enzyme activity is greater and more difficult to inhibit at neutral pH, as compared with an acid pH, and that the much lower treatment levels would give less urease inhibition.

urease = urease (Canavalia ensiformis, UniProt P07374); details: in solution; cited from earlier work
Chain of urease (P07374 whole entry, looked up): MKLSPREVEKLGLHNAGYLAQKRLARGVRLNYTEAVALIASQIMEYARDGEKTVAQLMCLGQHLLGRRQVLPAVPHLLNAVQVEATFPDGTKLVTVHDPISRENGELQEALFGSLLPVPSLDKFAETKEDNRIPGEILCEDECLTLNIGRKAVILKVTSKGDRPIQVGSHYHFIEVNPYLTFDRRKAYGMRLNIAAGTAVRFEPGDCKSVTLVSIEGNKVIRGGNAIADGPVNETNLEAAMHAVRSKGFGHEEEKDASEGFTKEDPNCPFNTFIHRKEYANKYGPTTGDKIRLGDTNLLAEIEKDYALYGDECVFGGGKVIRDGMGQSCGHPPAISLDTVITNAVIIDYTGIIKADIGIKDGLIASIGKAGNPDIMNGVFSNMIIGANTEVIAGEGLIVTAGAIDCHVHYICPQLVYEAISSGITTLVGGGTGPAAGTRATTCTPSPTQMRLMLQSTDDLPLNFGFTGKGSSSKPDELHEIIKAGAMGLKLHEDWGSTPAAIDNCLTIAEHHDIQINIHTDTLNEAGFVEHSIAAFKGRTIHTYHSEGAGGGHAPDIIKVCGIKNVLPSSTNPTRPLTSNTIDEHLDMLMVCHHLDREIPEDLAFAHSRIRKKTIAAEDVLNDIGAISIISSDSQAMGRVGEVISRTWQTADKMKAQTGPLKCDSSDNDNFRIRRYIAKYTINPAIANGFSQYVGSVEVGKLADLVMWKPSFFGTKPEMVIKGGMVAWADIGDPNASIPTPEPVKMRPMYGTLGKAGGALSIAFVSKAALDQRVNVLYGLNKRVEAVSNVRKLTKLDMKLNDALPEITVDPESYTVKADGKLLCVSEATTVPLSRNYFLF

urease enzyme [3] = experiment: Nitrogen volatilization of 50:50 urea:water solutions (gas trap and FIA instrument)
Text: Various concentrations of Catechol Violet paired with polymer, were examined utilizing the gas trap and FIA instrument at Alltech (Sparta, Ill.). Treatment replicates are shown across the horizontal axis, and percent Nitrogen concentration (expressed as ammonia that has volatilized) is given in the vertical axis. For FIGS. 1, 2, 4A, and 4B, the treatments proceed in number order along the horizontal axis, moving from left to right, with the left being the lowest treatment number and the right being the highest treatment number. For FIGS. 3A and 3B, the treatments proceed as described above, with the exception of treatment 7, which is the farthest right along the horizontal axis. Briefly, the lower the amount of volatilized nitrogen, the greater the inhibition of the activity of the urease enzyme.
Each set of treatments includes:
• 1) An untreated control (50:50 urea:water, w/w). […] Concentrations and details of each treatment are given in the following paragraphs. 7.1—Three Day Results of Catechol Violet Solutions (FIG. 1)

urease enzyme [4] = details: industry standard, added at 0.2% v/v of the urea solution; cited from earlier work
[5] = cited from earlier work
[6] = used with UAN; 87 trials and 487 comparisons; cited from earlier work

T1 sequence (P07374 whole entry, looked up): as above

O=C1C=C/C(=C(/c2ccc(O)c(O)c2)c2ccccc2S(=O)(=O)O)C=C1O [3,3′,4-trihydroxysuchsone-2″-sulfonic acid]
inhibition at 0.1 ppm (jackbean urease enzyme [1]): 7% | inhibition at 0.25 ppm (jackbean urease enzyme [1]): 22% | inhibition at 0.5 ppm (jackbean urease enzyme [1]): 25% | inhibition at 0.75 ppm (jackbean urease enzyme [1]): 45% | inhibition at 1 ppm (jackbean urease enzyme [1]): 61% | inhibition at 2 ppm (jackbean urease enzyme [1]): 76% | inhibition at 5 ppm (jackbean urease enzyme [1]): 88% | inhibition at 0.1 ppm (jackbean urease enzyme [2]): 2% | inhibition at 0.25 ppm (jackbean urease enzyme [2]): 30% | inhibition at 0.5 ppm (jackbean urease enzyme [2]): 41% | inhibition at 0.75 ppm (jackbean urease enzyme [2]): 46% | inhibition at 1 ppm (jackbean urease enzyme [2]): 50%

O=C1C=CC(=O)C=C1 [benzoquinone]
concentration at which effective urease inhibitors (urease): about 1 ppm by weight

Oc1ccccc1O [catechol]
concentration at which effective urease inhibitors (urease): about 1 ppm by weight

CCCCNP(N)(N)=S [NBPT, N-(n-butyl) thiophosphoric triamide]
urease activity and N-loss through volatilization (FIGS. 3A and 3B) (urease enzyme [3]; NBPT (Agrotain Ultra) 0.2% v/v, three and seven day test): inhibits urease activity and N-loss through volatilization | 7-day N-loss via volatilization (FIG. 4B) (urease enzyme [3]; after 7 days, compared to untreated urea solution): continue to limit N-loss via volatilization when compared to the untreated urea solution | inhibition of N-volatilization (historical) (urease enzyme [4]): near-total inhibition of N-volatilization | NBPT content lost on storage ([5]; after six months): over 99% | NBPT content lost on storage ([5]; storage at 25° C. for three months): up to 40% | average improvement in yield [6]: about 1.6 bushels/acre | trials resulting in yield losses [6]: about 40%
